Assay results taken from US20260317299A1, “PIKFYVE PROTEIN KINASE DEGRADATION AGENT AND USE THEREOF” (Shanghai Institute of Organic Chemistry, Chinese Academy of …, priority 2023, published 2026).

biological target: T1, PIKfyve (Homo sapiens, UniProt Q9Y2I7); assay: Degradation of PIKfyve proteins in VCaP tumor cells (24 h, Western blot); assay type: cell-based; settings: 37° C., compared with DMSO control, WB, read-out: DC50 (concentration that achieves 50% degradation activity)
T1 construct: endogenous in cells; host or cells: VCaP
T1 sequence (Q9Y2I7 whole entry): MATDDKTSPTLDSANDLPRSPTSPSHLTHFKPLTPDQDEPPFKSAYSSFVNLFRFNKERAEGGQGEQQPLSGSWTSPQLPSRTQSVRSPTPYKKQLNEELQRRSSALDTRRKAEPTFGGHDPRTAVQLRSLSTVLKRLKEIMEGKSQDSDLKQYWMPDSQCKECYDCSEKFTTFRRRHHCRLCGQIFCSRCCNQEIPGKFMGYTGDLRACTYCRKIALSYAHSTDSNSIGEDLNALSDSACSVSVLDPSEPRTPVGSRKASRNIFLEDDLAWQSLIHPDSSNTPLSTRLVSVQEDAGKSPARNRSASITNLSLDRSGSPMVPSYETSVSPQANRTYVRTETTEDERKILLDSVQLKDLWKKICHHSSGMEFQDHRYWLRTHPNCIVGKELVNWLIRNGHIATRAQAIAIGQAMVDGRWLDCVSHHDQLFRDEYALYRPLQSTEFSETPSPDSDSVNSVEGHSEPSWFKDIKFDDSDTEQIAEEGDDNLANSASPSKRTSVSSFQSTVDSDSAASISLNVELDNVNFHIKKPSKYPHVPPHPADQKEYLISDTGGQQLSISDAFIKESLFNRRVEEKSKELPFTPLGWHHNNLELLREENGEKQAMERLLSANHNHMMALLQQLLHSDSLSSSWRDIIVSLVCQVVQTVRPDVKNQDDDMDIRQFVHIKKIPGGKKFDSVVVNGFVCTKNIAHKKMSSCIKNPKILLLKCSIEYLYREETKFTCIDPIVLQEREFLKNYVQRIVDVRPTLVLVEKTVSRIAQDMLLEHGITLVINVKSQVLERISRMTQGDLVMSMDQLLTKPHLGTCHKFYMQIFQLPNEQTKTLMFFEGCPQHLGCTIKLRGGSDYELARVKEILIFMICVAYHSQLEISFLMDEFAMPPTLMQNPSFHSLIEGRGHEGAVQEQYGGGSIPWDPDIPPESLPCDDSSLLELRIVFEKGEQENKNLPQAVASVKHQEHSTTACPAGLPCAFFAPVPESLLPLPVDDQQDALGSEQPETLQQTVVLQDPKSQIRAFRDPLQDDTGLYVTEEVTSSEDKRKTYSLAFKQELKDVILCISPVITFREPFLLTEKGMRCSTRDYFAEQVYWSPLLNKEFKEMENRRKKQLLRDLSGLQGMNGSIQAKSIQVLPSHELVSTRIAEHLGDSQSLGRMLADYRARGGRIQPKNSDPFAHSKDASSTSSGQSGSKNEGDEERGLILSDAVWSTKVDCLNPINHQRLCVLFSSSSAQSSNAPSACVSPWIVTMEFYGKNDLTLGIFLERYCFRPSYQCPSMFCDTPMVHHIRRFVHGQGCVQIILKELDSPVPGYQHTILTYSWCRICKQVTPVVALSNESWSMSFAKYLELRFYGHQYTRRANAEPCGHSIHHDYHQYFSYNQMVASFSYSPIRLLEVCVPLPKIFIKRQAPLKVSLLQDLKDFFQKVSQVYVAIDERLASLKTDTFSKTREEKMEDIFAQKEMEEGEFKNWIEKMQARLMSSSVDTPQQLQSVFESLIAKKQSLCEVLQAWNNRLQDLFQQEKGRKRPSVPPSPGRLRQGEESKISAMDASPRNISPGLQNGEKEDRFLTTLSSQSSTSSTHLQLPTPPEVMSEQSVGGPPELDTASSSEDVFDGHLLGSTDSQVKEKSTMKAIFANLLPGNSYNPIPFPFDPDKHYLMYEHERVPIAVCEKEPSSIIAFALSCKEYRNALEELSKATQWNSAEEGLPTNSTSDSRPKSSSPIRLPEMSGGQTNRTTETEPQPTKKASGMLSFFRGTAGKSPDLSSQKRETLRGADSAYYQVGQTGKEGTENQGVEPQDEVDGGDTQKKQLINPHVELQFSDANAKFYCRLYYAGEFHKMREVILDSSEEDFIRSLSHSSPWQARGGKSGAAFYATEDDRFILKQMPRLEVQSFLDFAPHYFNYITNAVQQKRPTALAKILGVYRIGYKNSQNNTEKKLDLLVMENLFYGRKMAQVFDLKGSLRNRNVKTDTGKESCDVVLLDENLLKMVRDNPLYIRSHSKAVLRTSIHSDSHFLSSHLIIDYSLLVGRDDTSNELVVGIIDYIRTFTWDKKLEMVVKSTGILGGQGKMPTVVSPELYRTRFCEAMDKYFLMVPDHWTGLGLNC
Procedure: Method: 200 μL of cells at a density of 5×10^6 cells/ml were inoculated into a 6-well plate, and then different concentrations of drugs were added. The cells were treated at 37° C. for 24 h. The […] was collected and washed with PBS twice. Then, 100-200 μL of 1×SDS lysate was added, and the cell lysate was collected into a centrifuge tube. The cells were disrupted ultrasonically for 10-20 sec, and boiled for 10 min. Protein samples were subjected to SDS-PAGE electrophoresis at a voltage of 90 V, transferred to PVDF membranes at 110 V, blocked with 5% BSA for 4 h, incubated with primary antibodies (PIKfyve, GAPDH) at 4° C. overnight, and incubated with secondary antibodies (anti-Rabbit IgG or anti-Mouse IgG) at room temperature. The membranes were washed with TBST buffer, developed with an ECL developing solution, and then imaged to obtain protein band signals, with single-concentration WB results as shown in FIG. 1. Compared with the DMSO control group, the concentration that achieves 50% degradation activity is defined as DC50.

DC50	Structure (SMILES)
1 to 100 nM	Cc1cccc(/C=N/Nc2cc(N3CCOCC3)nc(OCCc3ccc(NC(=O)CCCNC(=O)CC[C@H](NC(=O)[C@@H]4C[C@@H](O)CN4C(=O)[C@@H](NC(=O)C4(F)CC4)C(C)(C)C)c4ccc(-c5scnc5C)cc4)cc3)n2)c1 [Example 51, (2S,4R)-1-((S)-2-(1-fluorocyclopropane-1-carboxamido)-3,3-dimethylbutanoyl)-4-hydroxy-N—((S)-4-((4-((4-(2-((4-(2-((E)-3-methylbenzylidene)hydrazino)-6-morpholinopyrimidin-2-yl)oxy)ethyl)phenyl)amino)-4-oxobutyl)amino)-1-(4-(4-methylthiazol-5-yl)phenyl)4-oxobutyl)pyrrolidine-2-carboxamide]
1 to 100 nM	Cc1cccc(/C=N/Nc2cc(N3CCOCC3)nc(OCCc3ccc(NC(=O)CCCCCNC(=O)CC[C@H](NC(=O)[C@@H]4C[C@@H](O)CN4C(=O)[C@@H](NC(=O)C4(F)CC4)C(C)(C)C)c4ccc(-c5scnc5C)cc4)cc3)n2)c1 [Example 52, (2S,4R)-1-((S)-2-(1-fluorocyclopropane-1-carboxamido)-3,3-dimethylbutanoyl)-4-hydroxy-N—((S)-4-((6-((4-(2-((4-(2-((E)-3-methylbenzylidene)hydrazino)-6-morpholinopyrimidin-2-yl)oxy)ethyl)phenyl)amino)-6-oxohexyl)amino)-1-(4-(4-methylthiazol-5-yl)phenyl)4-oxobutyl)pyrrolidine-2-carboxamide]
1 to 100 nM	Cc1cccc(/C=N/Nc2cc(N3CCOCC3)nc(OCCc3ccc(NC(=O)COc4cc(-c5scnc5C)ccc4CNC(=O)[C@@H]4C[C@@H](O)CN4C(=O)[C@@H](NC(=O)C4(F)CC4)C(C)(C)C)cc3)n2)c1 [Example 53, (2S,4R)-1-((S)-2-(1-fluorocyclopropane-1-carboxamido)-3,3-dimethylbutanoyl)-4-hydroxy-N-(2-(2-((4-(2-((4-(2-((E)-3-methylbenzylidene)hydrazino)-6-morpholinopyrimidin-2-yl)oxy)ethyl)phenyl)amino)-2-oxoethoxy)-4-(4-methylthiazol-5-yl)benzyl)pyrrolidine-2-carboxamide]
1 to 100 nM	Cc1cccc(/C=N/Nc2cc(N3CCOCC3)nc(OCCc3ccc(NC(=O)CNC(=O)COc4cc(-c5scnc5C)ccc4CNC(=O)[C@@H]4C[C@@H](O)CN4C(=O)[C@@H](NC(=O)C4(F)CC4)C(C)(C)C)cc3)n2)c1 [Example 54, (2S,4R)-1-((S)-2-(1-fluorocyclopropane-1-carboxamido)-3,3-dimethylbutanoyl)-4-hydroxy-N-(2-(2-((2-((4-(2-((4-(2-((E)-3-methylbenzylidene)hydrazino)-6-morpholinopyrimidin-2-yl)oxy)ethyl)phenyl)amino)-2-oxoethyl)amino)-2-oxoethoxy)-4-(4-methylthiazol-5-yl)benzyl)pyrrolidine-2-carboxamide]
1 to 100 nM	Cc1cccc(/C=N/Nc2cc(N3CCOCC3)nc(OCCc3ccc(NC(=O)CCCNC(=O)COc4cc(-c5scnc5C)ccc4CNC(=O)[C@@H]4C[C@@H](O)CN4C(=O)[C@@H](NC(=O)C4(F)CC4)C(C)(C)C)cc3)n2)c1 [Example 55, (2S,4R)-1-((S)-2-(1-fluorocyclopropane-1-carboxamido)-3,3-dimethylbutanoyl)-4-hydroxy-N-(2-(2-((4-((4-(2-((4-(2-((E)-3-methylbenzylidene)hydrazino)-6-morpholinopyrimidin-2-yl)oxy)ethyl)phenyl)amino)-4-oxobutyl)amino)-2-oxoethoxy)-4-(4-methylthiazol-5-yl)benzyl)pyrrolidine-2-carboxamide]
1 to 100 nM	Cc1cccc(/C=N/Nc2cc(N3CCOCC3)nc(OCCc3ccc(NC(=O)CSC(C)(C)[C@H](NC(=O)C4(F)CC4)C(=O)N4C[C@H](O)C[C@H]4C(=O)NCc4ccc(-c5scnc5C)cc4)cc3)n2)c1 [Example 57, (2S,4R)-1-((R)-2-(1-fluorocyclopropane-1-carboxamido)-3-methyl-3-((2-((4-(2-((4-(2-((E)-3-methylbenzylidene)hydrazino)-6-morpholinopyrimidin-2-yl)oxy)ethyl)phenyl)amino)-2-oxoethyl)thio)butanoyl)-4-hydroxy-N-(4-(4-methylthiazol-5-yl)benzyl)pyrrolidine-2-carboxamide]
100 to 10000 nM	Cc1cccc(/C=N/Nc2cc(N3CCOCC3)nc(OCCc3ccc(NC(=O)CNC(=O)CSC(C)(C)[C@H](NC(=O)C4(F)CC4)C(=O)N4C[C@H](O)C[C@H]4C(=O)NCc4ccc(-c5scnc5C)cc4)cc3)n2)c1 [Example 58, (2S,4R)-1-((R)-2-(1-fluorocyclopropane-1-carboxamido)-3-methyl-3-((2-((2-((4-(2-((4-(2-((E)-3-methylbenzylidene)hydrazino)-6-morpholinopyrimidin-2-yl)oxy)ethyl)phenyl)amino)-2-oxoethyl)amino)-2-oxoethyl)thio)butanoyl)-4-hydroxy-N-(4-(4-methylthiazol-5-yl)benzyl)pyrrolidine-2-carboxamide]
100 to 10000 nM	Cc1cccc(/C=N/Nc2cc(N3CCOCC3)nc(OCCc3ccc(NC(=O)CCCNC(=O)CSC(C)(C)[C@H](NC(=O)C4(F)CC4)C(=O)N4C[C@H](O)C[C@H]4C(=O)NCc4ccc(-c5scnc5C)cc4)cc3)n2)c1 [Example 59, (2S,4R)-1-((R)-2-(1-fluorocyclopropane-1-carboxamido)-3-methyl-3-((2-((4-((4-(2-((4-(2-((E)-3-methylbenzylidene)hydrazino)-6-morpholinopyrimidin-2-yl)oxy)ethyl)phenyl)amino)-4-oxobutyl)amino)-2-oxoethyl)thio)butanoyl)-4-hydroxy-N-(4-(4-methylthiazol-5-yl)benzyl)pyrrolidine-2-carboxamide]
100 to 10000 nM	Cc1cccc(/C=N/Nc2cc(N3CCOCC3)nc(OCCc3ccc(NC(=O)CCCCCNC(=O)CSC(C)(C)[C@H](NC(=O)C4(F)CC4)C(=O)N4C[C@H](O)C[C@H]4C(=O)NCc4ccc(-c5scnc5C)cc4)cc3)n2)c1 [Example 60, (2S,4R)-1-((R)-2-(1-fluorocyclopropane-1-carboxamido)-3-methyl-3-((2-((6-((4-(2-((4-(2-((E)-3-methylbenzylidene)hydrazino)-6-morpholinopyrimidin-2-yl)oxy)ethyl)phenyl)amino)-6-oxohexyl)amino)-2-oxoethyl)thio)butanoyl)-4-hydroxy-N-(4-(4-methylthiazol-5-yl)benzyl)pyrrolidine-2-carboxamide]
100 to 10000 nM	Cc1cccc(/C=N/Nc2cc(N3CCOCC3)nc(OCCNC(=O)CCC(=O)N[C@H](C(=O)N3C[C@H](O)C[C@H]3C(=O)NCc3ccc(-c4scnc4C)cc3)C(C)(C)C)n2)c1 [Example 61, N^1—((S)-1-((2S,4R)-4-hydroxy-2-((4-(4-methylthiazol-5-yl)benzyl)carbamoyl)pyrrolidine-1-yl)-3,3-dimethyl-1-oxobutan-2-yl)-N^4-(2-((4-(2-((E)-3-methylbenzylidene) hydrazino)-6-morpholinopyrimidin-2-yl)oxy)ethyl)succinimide]
100 to 10000 nM	Cc1cccc(/C=N/Nc2cc(N3CCOCC3)nc(OCCNC(=O)CCCCC(=O)N[C@H](C(=O)N3C[C@H](O)C[C@H]3C(=O)NCc3ccc(-c4scnc4C)cc3)C(C)(C)C)n2)c1 [Example 62, N^1—((S)-1-((2S,4R)-4-hydroxy-2-((4-(4-methylthiazol-5-yl)benzyl)carbamoyl)pyrrolidine-1-yl)-3,3-dimethyl-1-oxobutan-2-yl)-N^6-(2-((4-(2-((E)-3-methylbenzylidene) hydrazino)-6-morpholinopyrimidin-2-yl)oxy)ethyl)adipamide]
100 to 10000 nM	Cc1cccc(/C=N/Nc2cc(N3CCOCC3)nc(OCCNC(=O)CCCCCCC(=O)N[C@H](C(=O)N3C[C@H](O)C[C@H]3C(=O)NCc3ccc(-c4scnc4C)cc3)C(C)(C)C)n2)c1 [Example 63, N^1—((S)-1-((2S,4R)-4-hydroxy-2-((4-(4-methylthiazol-5-yl)benzyl)carbamoyl)pyrrolidine-1-yl)-3,3-dimethyl-1-oxobutan-2-yl)-N-(2-((4-(2-((E)-3-methylbenzylidene) hydrazino)-6-morpholinopyrimidin-2-yl)oxy)ethyl)octanediamide]
100 to 10000 nM	Cc1cccc(/C=N/Nc2cc(N3CCOCC3)nc(OCCNC(=O)CCCCCCCCC(=O)N[C@H](C(=O)N3C[C@H](O)C[C@H]3C(=O)NCc3ccc(-c4scnc4C)cc3)C(C)(C)C)n2)c1 [Example 64, N^1—((S)-1-((2S,4R)-4-hydroxy-2-((4-(4-methylthiazol-5-yl)benzyl)carbamoyl)pyrrolidine-1-yl)-3,3-dimethyl-1-oxobutan-2-yl)-N^10-(2-((4-(2-((E)-3-methylbenzylidene) hydrazino)-6-morpholinopyrimidin-2-yl)oxy)ethyl)decanediamide]
1 to 100 nM	Cc1cccc(-c2ccn(-c3cc(N4CCOCC4)nc(OCCc4ccc(NC(=O)CNC(=O)CC[C@H](NC(=O)[C@@H]5C[C@@H](O)CN5C(=O)[C@@H](NC(=O)C5(F)CC5)C(C)(C)C)c5ccc(-c6scnc6C)cc5)cc4)n3)n2)c1 [Example 65, (2S,4R)-1-((S)-2-(1-fluorocyclopropane-1-carboxamido)-3,3-dimethylbutanoyl)-4-hydroxy-N—((S)-1-(4-(4-methylthiazol-5-yl)phenyl)-4-((2-((4-(2-((4-morpholino-6-(3-(m-tolyl)-1H-pyrazol-1-yl)pyrimidin-2-yl)oxy)ethyl)phenyl)amino)-2-oxoethyl)amino)-4-oxobutyl)pyrrolidine-2-carboxamide]
